In the test the test system is M. tuberculosis H37Rv growth inhibition with meropenem. The test can be described thus: dose response, H37Rv, with and without meropenem (AID 434987).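 Note: growth over 7 days at 37 °C before Alamar Blue read on day 9.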
Where [1] appears, read: M. tuberculosis H37Rv growth inhibition, measured here: IC50 without meropenem.
Setting [2] is: M. tuberculosis H37Rv growth inhibition, measured here: IC90 without meropenem.
[3] abbreviates: measured here: IC90 with meropenem.

18 compounds from PubChem BioAssay AID434987 (Southern Research Specialized Biocontainment Screening …, 2010) can be followed below.

The source made the active and inactive calls. The rule behind the calls is not given here.

By IC50 is commonly meant the midpoint of a concentration-inhibition curve. The IC90 is the concentration at which the effect reaches the 90% level. Read a high IC90 as a need for much substance. As to `Cn1c(/C=N/c2nc3ccccc3[nH]2)nc2ccccc21`, the half-maximal inhibitory concentration (IC50) was below 0.2 µM. This compound showed a concentration for half-maximal inhibition (IC50) under setting [1] of 3.82 µM. Under setting [2], this compound showed an IC90 above 100 µM. Moreover, the IC90 under setting [3] came to 4.17 µM.

For `CCCC(C(=O)N1CCOCC1)N1C(=O)C2C3C=CC(C3)C2C1=O` (configuration not stated), the IC50 is > 100 µM (inactive). Besides, under setting [1], the IC50 was above 100 µM. The IC90 under setting [2] was above 100 µM. The compound further had an IC90 under setting [3] above 100 µM.

Take `CCOC(=O)c1c(C)[nH]c(C)c1C(=O)COC(=O)/C=C/c1ccc(OC(F)F)cc1`: the IC50 was 61.1 µM (inactive). Under setting [1], this compound gave an IC50 of 98.3 µM. Further, under setting [2], the 90% effect concentration (IC90) is above 100 µM. In addition, under setting [3], the concentration for an effect of 90% (IC90) amounted to 91.4 µM.

With `CC(C(=O)Nc1sc2c(c1C(=O)NCc1ccco1)CCCC2)N1C(=O)c2ccccc2C1=O` (configuration not stated), the IC50 was 46.1 µM (inactive). Moreover, the IC50 under setting [1] is above 100 µM. Also, the IC90 under setting [2] is above 100 µM. Under setting [3], this compound had an IC90 above 100 µM.

For the compound `CN1c2ccccc2C(=O)NC1c1ccc([N+](=O)[O-])s1` (configuration not stated), the IC50 is 3.09 µM. Besides, under setting [1], the IC50 stood at 20.7 µM. The 90% effect concentration (IC90) under setting [2] turned out to be 38.4 µM. Besides, under setting [3], the concentration for an effect of 90% (IC90) was 33.3 µM.

`CCCCOc1ccc(C(=O)Oc2cccnc2)cc1`: the IC50 is 19.5 µM. Under setting [1], this compound returned an IC50 above 100 µM. The same compound returned an IC90 under setting [2] above 100 µM. The same compound showed an IC90 under setting [3] above 100 µM.

On to `Cc1ccccc1C(=O)Oc1ccccc1N1C(=O)C2CC=CCC2C1=O` (configuration not stated), for which the IC50 is > 100 µM (inactive). Also, the IC50 under setting [1] is above 100 µM. This compound also displayed an IC90 under setting [2] above 100 µM. Besides, the IC90 under setting [3] is above 100 µM.

In the case of `O=C(/C=C/c1ccccn1)c1cc(Br)ccc1O`, the IC50 was 21.8 µM (inactive). Besides, the IC50 under setting [1] amounted to 37.4 µM. For the same compound, the IC90 under setting [2] is 58.6 µM. For the same compound, the 90% effect concentration (IC90) under setting [3] was found to be 45.1 µM.

As to `O=C(N/N=C/C(Br)=C\c1ccccc1)c1ccc2nc[nH]c2c1`, the IC50 is 30.4 µM. The compound further displayed an IC50 under setting [1] above 100 µM. Under setting [2], this compound displayed an IC90 above 100 µM. Also, the IC90 under setting [3] was above 100 µM.

Consider `CCOC(=O)c1nn(-c2ccc(Cl)cc2)cc1O`, for which the IC50 was > 100 µM (inactive). The compound also yielded an IC50 under setting [1] above 100 µM. In addition, the IC90 under setting [2] was above 100 µM. The same compound returned an IC90 under setting [3] above 100 µM.

As to `Cc1[nH]c2c(C)cccc2c1CCNC(=O)c1ccc2c(c1[N+](=O)[O-])C(=O)c1ccccc1C2=O`, the IC50 was > 100 µM (inactive). Besides, under setting [1], the IC50 was above 100 µM. The same compound showed an IC90 under setting [2] above 100 µM. Under setting [3], this compound yielded an IC90 above 100 µM.

`COc1ccc(C2(CNC(=O)c3cc([N+](=O)[O-])cc([N+](=O)[O-])c3)CCCC2)cc1OC`: the IC50 is 1.43 µM (inactive). In addition, the IC50 under setting [1] stood at 1.86 µM. This compound also displayed an IC90 under setting [2] of 3 µM. This compound displayed an IC90 under setting [3] of 1.61 µM.

Consider `CCC(CC)Nc1ccc(C(CC(N)=O)NC(=O)c2ccccc2)cc1[N+](=O)[O-]` (configuration not stated), for which the IC50 is > 100 µM (inactive). Under setting [1], this compound returned a 50% inhibitory concentration (IC50) above 100 µM. Under setting [2], this compound yielded an IC90 above 100 µM. Under setting [3], this compound returned an IC90 above 100 µM.

`O=C(Cn1nnc2c(cnn2-c2ccccc2)c1=O)N1CCN(c2ccccc2F)CC1`: the IC50 is > 100 µM (inactive). In addition, the 50% inhibitory concentration (IC50) under setting [1] is above 100 µM. The compound also yielded an IC90 under setting [2] above 100 µM. For the same compound, the IC90 under setting [3] was above 100 µM.

As for `O=C1c2ccccc2N2C(=O)c3ccccc3C2N1O` (configuration not stated), the IC50 is 13.9 µM. Also, the IC50 under setting [1] was determined as 39.3 µM. The same compound yielded an IC90 under setting [2] above 100 µM. Under setting [3], this compound yielded an IC90 of 56.4 µM.

For the compound `COC(=O)c1ccc(/C=N/NC(=O)c2cccc(F)c2)cc1`, the IC50 was > 100 µM (inactive). In addition, under setting [1], the IC50 is above 100 µM. The compound also showed an IC90 under setting [2] above 100 µM. This compound registered an IC90 under setting [3] above 100 µM.

Turning to `CC1CCN(C(=S)NC(=O)c2ccccc2)CC1`, the IC50 was 12 µM. This compound also displayed an IC50 under setting [1] of 40.7 µM. Under setting [2], this compound came in with an IC90 of 77.6 µM. The IC90 under setting [3] is 13.6 µM.

`CCc1nc2scc(-c3cccs3)c2c(=O)o1`: the IC50 was > 100 µM (inactive). This compound registered a concentration for half-maximal inhibition (IC50) under setting [1] above 100 µM. The compound further showed a concentration for an effect of 90% (IC90) under setting [2] above 100 µM. This compound also displayed an IC90 under setting [3] above 100 µM.
